This is an account of results in article PMC9501983, “Transport and Permeation Properties of Dapivirine: Understanding Potential Drug-Drug Interactions” (Pharmaceutics, 2022).

For one data set, the system named is human cervical tissue. Briefly: Histology (H&E) of human cervical tissue after permeability assay. To be noted: 6-h exposure, clinically relevant concentrations. As to the method:
Gross morphology of tissue samples was evaluated using hematoxylin and eosin (H&E) staining. After fixation in formalin, tissue samples were dehydrated in alcohol, cleared in xylene, and embedded in paraffin wax. Five-micron sections of embedded tissue were used to perform H&E staining following manufacturer’s procedures (hematoxylin for 5 min, bluing reagent for 15 s, and eosin for 2 min) and mounted onto microscope slides using Cytoseal 60. Images were acquired using the AxioCam software, version 4.9.1 (Carl Zeiss, San Diego, CA, USA) paired with the microscope, Axioskop 40 (Carl Zeiss, San Diego, CA, USA).

The target of data set [1] is T1, MRP1 (Homo sapiens, UniProt P33527). As to the method: (§1) To investigate if DPV was a substrate or inhibitor of MRP1 or MRP4, ATP-dependent and independent uptake of DPV (in the substrate study) or estradiol 17 β-D-glucuronide (a known MRP1/MRP4 substrate in the inhibitor study) was measured using 50 μg MRP1, MRP4, and control vesicles. […] The uptake assay was performed at a total volume of 50 μL with either 4 mM ATP or AMP, 2 mM glutathione, 10 μM DPV or estradiol 17 β-D-glucuronide as substrates, with and without 20 μM DPV or MK571 as inhibitors. […] To quantify the uptake amount of DPV or estradiol 17 β-D-glucuronide, 4 μCi mL^−1 3H-DPV or ^3H- estradiol 17 β-D-glucuronide was added to the assay mixture.
(§2) The vesicular uptake assays were performed under the above-mentioned conditions. The membrane vesicles were first incubated with respective inhibitor solution or blank assay buffer. The reaction was then initiated by adding the remaining components of the assay mixture to the vesicles and incubated at 37 °C for 3 min. To terminate the reaction, 200 μL ice-cold buffer was added to each well. The samples were then transferred to a glass fiber filter plate and washed 5 times by rapid filtration using a vacuum manifold (IBI Scientific, Dubuque, IA, USA). To quantify ^3H-DPV and ^3H-estradiol 17 β-D-glucuronide uptake, the washed vesicles were lysed with scintillation cocktail at room temperature for 20 min. The collected samples were analyzed on an LS6500 liquid scintillation counter (Beckman Coulter, Brea, CA, USA).
(§3) If ATP-dependent uptake was observed, the uptake amount by active transport was calculated using Equation (1):(1) Normalized uptake=mean uptake with ATP−mean uptake with AMP

For data set [2], the target named is T1, MRP1. Briefly: ATPase assay (ADP-Glo Max) in MRP1 vesicles. Also on record: purchased Thermo Fisher Scientific. The conditions noted are these: DPV 20 μM; N-ethylmaleimide-S-glutathione 10 mM; 60 min, 37 °C. It counts as biochemical. As to the method:
ATPase activity of MRP1 or MRP4 in transporter overexpressing membrane vesicles (10 μg of protein per assay) was measured by the ADP-Glo Max assay according to manufacturer’s protocol. The assay quantified the amount of ADP produced by the membrane vesicles over 60 min at 37 °C in the ATPase assay buffer (50 mM Tris-MOPS, 50 mM potassium chloride, 5 mM sodium azide, 2 mM dithiothreitol, 2 mM glutathione, 0.1 mM EGTA-Tris, and 10 mM magnesium chloride at pH 7.0). DPV was tested at 20 μM and compared to the baseline ATPase activity. A known MRP1 substrate, N-ethylmaleimide-S-glutathione (prepared by mixing N-ethylmaleimide and glutathione at a 1:1 molar ratio), at 10 mM and a known MRP4 substrate, prostaglandin E2, at 20 μM were used as positive controls. The reaction was initiated with 5 mM ATP and quenched with the ADP-Glo detection buffer. The amount of ADP produced was quantified by recording luminescence on a SpectraMax M3 plate reader (Molecular Devices, San Jose, CA, USA).
A general note: ADP-Glo turns the ADP formed in a reaction into a luminescent signal.

A further data set deals with T2, MRP4 (Homo sapiens, UniProt O15439).
T2 sequence (O15439 1-1325): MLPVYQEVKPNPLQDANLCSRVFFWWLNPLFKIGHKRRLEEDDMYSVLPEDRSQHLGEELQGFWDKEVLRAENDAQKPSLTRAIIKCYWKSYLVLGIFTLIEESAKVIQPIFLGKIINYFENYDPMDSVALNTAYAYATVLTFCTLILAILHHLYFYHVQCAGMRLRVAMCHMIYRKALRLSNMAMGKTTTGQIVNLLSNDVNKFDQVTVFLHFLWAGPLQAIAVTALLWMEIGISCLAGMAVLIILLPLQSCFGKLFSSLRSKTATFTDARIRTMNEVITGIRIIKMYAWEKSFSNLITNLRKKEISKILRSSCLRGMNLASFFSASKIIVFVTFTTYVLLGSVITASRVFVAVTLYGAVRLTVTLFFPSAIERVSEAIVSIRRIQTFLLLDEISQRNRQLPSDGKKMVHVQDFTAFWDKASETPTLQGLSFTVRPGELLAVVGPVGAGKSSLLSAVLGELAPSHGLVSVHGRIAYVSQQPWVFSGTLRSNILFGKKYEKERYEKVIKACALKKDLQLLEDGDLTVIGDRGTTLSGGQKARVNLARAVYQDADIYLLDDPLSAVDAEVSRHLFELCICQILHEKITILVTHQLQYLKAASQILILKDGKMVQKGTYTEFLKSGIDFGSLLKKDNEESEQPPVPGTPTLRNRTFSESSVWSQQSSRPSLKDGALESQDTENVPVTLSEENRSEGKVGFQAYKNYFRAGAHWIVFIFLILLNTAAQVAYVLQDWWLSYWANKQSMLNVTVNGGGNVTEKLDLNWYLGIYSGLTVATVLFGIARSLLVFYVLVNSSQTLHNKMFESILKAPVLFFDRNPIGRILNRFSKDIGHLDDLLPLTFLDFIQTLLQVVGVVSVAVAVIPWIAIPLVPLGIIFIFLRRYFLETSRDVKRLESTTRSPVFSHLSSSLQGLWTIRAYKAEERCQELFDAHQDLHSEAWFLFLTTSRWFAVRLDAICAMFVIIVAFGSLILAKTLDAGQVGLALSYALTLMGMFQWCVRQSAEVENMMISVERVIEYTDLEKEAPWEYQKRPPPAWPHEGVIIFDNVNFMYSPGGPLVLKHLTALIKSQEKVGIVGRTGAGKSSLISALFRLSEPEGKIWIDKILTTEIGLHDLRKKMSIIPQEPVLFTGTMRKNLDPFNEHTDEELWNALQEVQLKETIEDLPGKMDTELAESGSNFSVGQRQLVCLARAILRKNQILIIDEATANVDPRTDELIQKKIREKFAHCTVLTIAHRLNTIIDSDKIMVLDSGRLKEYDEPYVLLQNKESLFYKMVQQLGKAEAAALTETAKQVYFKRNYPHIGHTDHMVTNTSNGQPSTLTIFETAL
Briefly: in vitro. As to the method:
as §1, §2, §3

A further data set relates to UGT enzymes. Also on record: method as in PMID 34959473. The conditions noted are these: cited from earlier work.
The mark [3] stands for this setting: 10 μM substrate, 20 μM test inhibitor, ATP minus AMP.

T1 sequence (P33527 whole entry): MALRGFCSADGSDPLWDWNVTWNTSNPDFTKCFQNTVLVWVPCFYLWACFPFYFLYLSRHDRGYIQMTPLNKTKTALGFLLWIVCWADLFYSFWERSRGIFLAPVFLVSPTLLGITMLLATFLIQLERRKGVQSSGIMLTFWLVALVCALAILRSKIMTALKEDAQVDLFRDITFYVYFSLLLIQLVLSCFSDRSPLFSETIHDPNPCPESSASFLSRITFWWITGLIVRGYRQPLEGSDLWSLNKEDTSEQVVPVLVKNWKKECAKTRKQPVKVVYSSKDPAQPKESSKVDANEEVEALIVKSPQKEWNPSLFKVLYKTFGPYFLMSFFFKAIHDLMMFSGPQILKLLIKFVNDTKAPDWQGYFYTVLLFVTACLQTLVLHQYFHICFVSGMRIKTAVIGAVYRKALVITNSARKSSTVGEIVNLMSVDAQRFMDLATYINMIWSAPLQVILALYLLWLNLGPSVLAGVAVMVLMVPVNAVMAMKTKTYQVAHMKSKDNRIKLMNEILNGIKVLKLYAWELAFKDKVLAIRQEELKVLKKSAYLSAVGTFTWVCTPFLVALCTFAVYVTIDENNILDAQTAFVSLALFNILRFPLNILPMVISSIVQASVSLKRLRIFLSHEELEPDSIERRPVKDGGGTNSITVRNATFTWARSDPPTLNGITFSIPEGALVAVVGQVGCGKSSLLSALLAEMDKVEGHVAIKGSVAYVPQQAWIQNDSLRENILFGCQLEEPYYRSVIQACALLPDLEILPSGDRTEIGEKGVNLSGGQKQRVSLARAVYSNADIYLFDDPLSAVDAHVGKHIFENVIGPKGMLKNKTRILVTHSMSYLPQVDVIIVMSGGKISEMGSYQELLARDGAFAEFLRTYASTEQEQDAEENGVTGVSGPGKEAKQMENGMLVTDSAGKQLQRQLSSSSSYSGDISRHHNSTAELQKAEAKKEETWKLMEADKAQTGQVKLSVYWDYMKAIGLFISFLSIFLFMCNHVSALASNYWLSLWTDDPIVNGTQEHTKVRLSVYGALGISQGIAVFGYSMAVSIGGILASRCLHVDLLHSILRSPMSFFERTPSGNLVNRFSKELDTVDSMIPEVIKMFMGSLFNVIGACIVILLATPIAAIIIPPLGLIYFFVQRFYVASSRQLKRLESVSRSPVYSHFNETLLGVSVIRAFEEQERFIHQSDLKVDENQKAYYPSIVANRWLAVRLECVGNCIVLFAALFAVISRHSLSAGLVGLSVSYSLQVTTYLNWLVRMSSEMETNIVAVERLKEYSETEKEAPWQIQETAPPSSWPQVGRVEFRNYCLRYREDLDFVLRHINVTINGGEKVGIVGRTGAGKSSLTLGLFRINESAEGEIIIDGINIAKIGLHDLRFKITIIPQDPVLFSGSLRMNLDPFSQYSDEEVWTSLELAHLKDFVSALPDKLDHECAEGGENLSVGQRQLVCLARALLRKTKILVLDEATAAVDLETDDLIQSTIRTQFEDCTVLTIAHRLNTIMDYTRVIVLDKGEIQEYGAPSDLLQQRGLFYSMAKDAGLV

For `Cc1cc(C)c(Nc2ccnc(Nc3ccc(C#N)cc3)n2)c(C)c1` [DPV, dapivirine], in the data set on human cervical tissue, the “Gross morphology of human cervical epithelium after exposure” value is “did not alter the gross morphology”. The “Substrate status for MRP1” value on MRP1 [1] is given as “not a substrate”. The “Normalized estradiol 17 β-D-glucuronide uptake by MRP1 vesicles co-incubated with inhibitor” value on MRP1 [1] (setting [3]) came out at 35.83 fmol. In addition, the “Active uptake of estradiol 17 β-D-glucuronide by MRP1 vesicles, reduced to % of control” value at MRP1 [1] (20 µM) is given as “not significantly affected”. The “ATPase activity in MRP1 vesicles, % of baseline” value at MRP1 [2] was “no significant stimulation”. For the same compound, the “Substrate status for MRP4” value at MRP4 was “not a substrate”. The “Normalized estradiol 17 β-D-glucuronide uptake by MRP4 vesicles co-incubated with inhibitor” value on MRP4 (setting [3]) stood at 14.08 fmol. The “Active uptake of estradiol 17 β-D-glucuronide by MRP4 vesicles, reduced to % of control” value on MRP4 (20 µM) is recorded as “not significantly affected”. Further, the “Substrate of UGT enzymes” value in the data set on UGT enzymes is listed as “not a substrate”.
